# According to patent publication US6039950A, “Pharmaceutical grade saw palmetto” (priority 1997, dated 2000):
# Where “and” joins values, the source holds several entries; their conditions need not be identical. Identical values can stand only once. Like-named read-outs stand apart in the source and are kept apart here. Numbered stars: 1 amine (or outer) side, 2 acyl side, 3 side chain; on linkers, the order of the positions; unused ones are H or OH. Bridge positions count the residues as written; N and C are the ends. Square brackets hold non-standard residues; d marks the D form. Peptide text beside a SMILES is read from it. I, II: the chains in the order shown. Actinocin(9to1) = Cc1c2oc3c(C)ccc(C(=O)[*:1])c3nc-2c(C(=O)[*:2])c(N)c1=O; NMeV = CN[C@H](C(=O)O)C(C)C; Sar = CNCC(=O)O
# Assays:
# smooth muscle = details: cited from earlier work
# Cyclooxygenase-2 = target: T1, Cyclooxygenase-2 (Ovis aries, UniProt P79208); assay: biochemical; format: biochemical, sheep
# T1 construct: Cyclooxygenase-2 (from sheep placenta); from tissue; host or cells: sheep placenta; assay by Panlabs
# Experimental: The reaction is initiated by addition of arachidonic acid (100 mM) and terminated after 20 minutes incubation at 37° C. by addition of TCA.
# 5-lipoxygenase = target: T2, 5-lipoxygenase (Rattus norvegicus, UniProt P12527); assay: biochemical; details: for 5-Lipo activity: screened at 3×10^-5 (30 μM)
# T2 sequence (P12527 1-673): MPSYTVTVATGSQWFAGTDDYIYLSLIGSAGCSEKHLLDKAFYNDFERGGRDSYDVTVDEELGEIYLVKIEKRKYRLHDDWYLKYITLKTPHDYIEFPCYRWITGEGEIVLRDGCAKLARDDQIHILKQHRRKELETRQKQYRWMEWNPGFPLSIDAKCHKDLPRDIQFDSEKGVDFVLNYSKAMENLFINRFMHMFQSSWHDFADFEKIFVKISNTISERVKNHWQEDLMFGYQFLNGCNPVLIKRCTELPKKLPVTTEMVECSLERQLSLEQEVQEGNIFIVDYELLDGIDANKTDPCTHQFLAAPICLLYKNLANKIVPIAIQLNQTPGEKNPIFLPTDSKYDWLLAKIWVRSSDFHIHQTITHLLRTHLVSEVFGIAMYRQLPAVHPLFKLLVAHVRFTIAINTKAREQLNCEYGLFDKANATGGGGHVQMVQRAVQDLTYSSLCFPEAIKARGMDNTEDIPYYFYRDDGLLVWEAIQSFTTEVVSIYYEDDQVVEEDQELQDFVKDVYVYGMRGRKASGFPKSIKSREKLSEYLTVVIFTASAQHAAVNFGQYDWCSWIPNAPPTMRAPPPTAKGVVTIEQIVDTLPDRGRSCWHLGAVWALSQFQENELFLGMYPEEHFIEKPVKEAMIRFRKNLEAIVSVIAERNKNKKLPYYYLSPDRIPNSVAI
# Experimental: The procedure was as follows. 5-lipoxygenase assays were run using a crude enzyme preparation from rat basophilic leukemia cells (RBL-1). Test compounds were pre-incubated with the enzyme for 5 minutes at room temperature and the reaction was initiated by addition of substrate (arachidonic acid). Following an 8 minute incubation at room temperature, the reaction was terminated by addition of citric acid, and levels of 5-HETE were determined by 5-HETE radioimmunoassay (RIA).
# Compounds and fractions were screened at an initial concentration of 3×10^-5.
# Cyclooxygenase-1 = target: T3, Cyclooxygenase-1 (Ovis aries, UniProt P05979); assay: biochemical; format: biochemical, ram; details: for Cox1 activity: screened at 3×10^-4 M
# T3 construct: Cyclooxygenase-1 (from ram seminal vesicles); from tissue; host or cells: ram seminal vesicles; assay by Panlabs
# T3 sequence (P05979 25-600): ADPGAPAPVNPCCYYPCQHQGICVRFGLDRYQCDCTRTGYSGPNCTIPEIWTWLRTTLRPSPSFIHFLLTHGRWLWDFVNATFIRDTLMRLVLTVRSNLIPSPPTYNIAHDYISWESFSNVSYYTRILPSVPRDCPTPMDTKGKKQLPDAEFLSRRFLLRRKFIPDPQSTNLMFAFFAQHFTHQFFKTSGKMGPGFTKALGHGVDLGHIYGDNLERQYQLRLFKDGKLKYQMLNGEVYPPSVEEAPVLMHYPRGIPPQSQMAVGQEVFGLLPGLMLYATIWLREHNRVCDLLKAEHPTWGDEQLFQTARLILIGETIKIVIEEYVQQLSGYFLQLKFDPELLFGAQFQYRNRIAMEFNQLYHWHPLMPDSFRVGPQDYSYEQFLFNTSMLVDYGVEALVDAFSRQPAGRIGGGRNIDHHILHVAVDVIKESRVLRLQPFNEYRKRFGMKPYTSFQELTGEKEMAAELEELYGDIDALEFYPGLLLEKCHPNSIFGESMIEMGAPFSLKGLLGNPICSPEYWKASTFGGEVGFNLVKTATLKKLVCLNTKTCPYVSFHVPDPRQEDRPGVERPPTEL
# Experimental: The reaction was initiated by addition of arachidonic acid (100 mM) and terminated after 20 minutes incubation at 37° C. by addition of trichloroacetic acid (TCA).
# [1] = target: T4, rat prostatic androgen receptor (Rattus norvegicus, UniProt P15207); assay: Rat prostatic nuclear androgen receptor binding assay against 3H-dihydrotestosterone
# T4 construct: the ventral prostates were rapidly removed and placed in ice-cold "homogenization buffer"; from tissue; host or cells: washed nuclear suspension of ventral prostate from testosterone-treated male rats (Harlan)
# T4 sequence (P15207 1-902): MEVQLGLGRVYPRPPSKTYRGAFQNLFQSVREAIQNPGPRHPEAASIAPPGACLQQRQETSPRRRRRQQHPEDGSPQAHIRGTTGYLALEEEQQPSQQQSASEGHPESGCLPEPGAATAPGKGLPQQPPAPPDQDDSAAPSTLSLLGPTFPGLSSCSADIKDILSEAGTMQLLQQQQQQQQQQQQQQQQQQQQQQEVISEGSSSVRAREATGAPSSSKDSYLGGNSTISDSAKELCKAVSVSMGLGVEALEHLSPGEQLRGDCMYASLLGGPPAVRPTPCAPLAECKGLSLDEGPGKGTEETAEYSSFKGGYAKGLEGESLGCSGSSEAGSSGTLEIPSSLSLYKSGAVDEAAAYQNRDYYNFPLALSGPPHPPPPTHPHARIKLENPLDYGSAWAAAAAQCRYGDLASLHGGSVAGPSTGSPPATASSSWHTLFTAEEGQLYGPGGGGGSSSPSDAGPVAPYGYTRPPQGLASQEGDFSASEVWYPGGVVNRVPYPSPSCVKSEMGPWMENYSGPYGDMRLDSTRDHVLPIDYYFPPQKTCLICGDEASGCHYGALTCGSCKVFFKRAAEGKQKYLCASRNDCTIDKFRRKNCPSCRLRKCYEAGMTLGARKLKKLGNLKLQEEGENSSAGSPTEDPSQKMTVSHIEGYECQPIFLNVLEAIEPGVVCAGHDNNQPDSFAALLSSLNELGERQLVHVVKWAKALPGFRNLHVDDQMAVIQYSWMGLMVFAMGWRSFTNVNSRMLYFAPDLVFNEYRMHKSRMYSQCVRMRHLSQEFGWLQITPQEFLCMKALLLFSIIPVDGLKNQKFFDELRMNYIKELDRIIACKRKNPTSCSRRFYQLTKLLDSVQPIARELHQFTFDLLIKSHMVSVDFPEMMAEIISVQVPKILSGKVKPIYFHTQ
# Experimental: Rats were fed with Purina chow and tap water, ad libitum.
# General chemicals (reagent grade), free fatty acids, fatty acid ethyl esters and radioinert steroids were obtained from Sigma Chemical Company (St. Louis, Mo.). ^3 H-dihydrotestosterone (5α-androstan-17β-ol-3-one; 60 Ci/mmol) was purchased from NEN Life Science Products (Boston, Mass.). 100% ethanol was used throughout for the preparations of all inhibitors and radioinert chemicals.
# The animals were treated intraperitoneally with testosterone (400 μg/100 g body wt). […] The homogenate was centrifuged at 800×g for 20 minutes at 4° C. […] The resuspended pellet was homogenized on ice using a glass Dounce homogenizer until suspension became uniform.
# Non-specific binding was determined using radioinert dihydrotestosterone (10^-5 M) in place of the inhibitor. The test tubes were incubated for 20 hours at 15° C.
# After an overnight incubation, 1 ml of ice-cold nuclear buffer was added followed by centrifugation at 800×g for 10 minutes at 4° C. The nuclear pellets were washed 3 times by resuspension in 1 ml of the same ice-cold nuclear buffer, with mixing and centrifugation as above. After discarding the final supernatant, 1 ml of 100% ethanol was added to each pellet and then vortexed. Test tubes were placed in a 30° C. water bath for 40 minutes, with vortexing every 10 minutes and a final centrifugation at 800 g for 10 minutes. The ethanol extracts were decanted into vials containing 4 ml of scintillation fluid (Ecoscint A), shaken and counted.
# The results, expressed as percent inhibition of ^3 H-Dihydrotestosterone binding, at two concentrations of putative active components, of the rat prostatic androgen receptor assay are below.
# Type 2 5α-reductase = details: cited from earlier work
# Type 1 5α-reductase = details: cited from earlier work
# [2] = Table 8, read-out: Cyclooxygenase-1 IC50 (Table 8)
# [3] = Table 8, read-out: Cyclooxygenase-2 IC50 (Table 8)
# [4] = Table 8, read-out: 5 Lipoxygenase IC50 (Table 8)
# [5] = read-out: Testosterone affinity, Km
# T1 sequence (P79208 17-603): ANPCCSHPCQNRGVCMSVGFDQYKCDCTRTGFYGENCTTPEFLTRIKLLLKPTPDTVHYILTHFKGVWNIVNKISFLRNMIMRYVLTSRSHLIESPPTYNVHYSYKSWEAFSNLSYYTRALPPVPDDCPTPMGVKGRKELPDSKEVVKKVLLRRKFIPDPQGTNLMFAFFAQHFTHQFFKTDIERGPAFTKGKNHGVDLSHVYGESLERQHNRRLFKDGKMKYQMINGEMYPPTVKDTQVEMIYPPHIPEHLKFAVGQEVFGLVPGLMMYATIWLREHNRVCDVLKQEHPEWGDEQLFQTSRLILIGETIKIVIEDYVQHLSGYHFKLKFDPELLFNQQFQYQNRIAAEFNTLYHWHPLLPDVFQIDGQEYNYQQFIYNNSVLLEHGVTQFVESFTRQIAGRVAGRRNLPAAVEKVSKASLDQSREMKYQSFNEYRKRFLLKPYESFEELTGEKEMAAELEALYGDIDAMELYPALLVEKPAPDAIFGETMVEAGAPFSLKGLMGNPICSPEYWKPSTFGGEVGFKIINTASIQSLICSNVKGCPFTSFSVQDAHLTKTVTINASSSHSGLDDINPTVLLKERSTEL
SMILES,effect on relaxant effect of Sabal extracts (smooth muscle),Cox2 activity (Cyclooxygenase-2),5-Lipo activity (5-lipoxygenase),IC50 (Cyclooxygenase-1; [2]),Cox1 activity (Cyclooxygenase-1),other results
"Cc1c2oc3c(C)ccc(C(=O)N[C@@H]4C(=O)N[C@H](C(C)C)C(=O)N5CCC[C@H]5C(=O)N(C)CC(=O)N(C)[C@@H](C(C)C)C(=O)O[C@@H]4C)c3nc-2c(C(=O)N[C@@H]2C(=O)N[C@H](C(C)C)C(=O)N3CCC[C@H]3C(=O)N(C)CC(=O)N(C)[C@@H](C(C)C)C(=O)O[C@@H]2C)c(N)c1=O [actinomycin D] (I: T[dV]P[Sar][NMeV] / II: T[dV]P[Sar][NMeV]; ester I:1-I:C, II:1-II:C; linker I:N-II:N via Actinocin(9to1))",antagonized the effect of the total lipidic extract without modifying that of the saponifiable extract,–,–,–,–,–
CCCCCCCC/C=C\CCCCCCCC(=O)OCC [Ethyl Oleate],–,Negative,Negative,> 300 µM,Negative,IC50 (Cyclooxygenase-2): > 300 µM; IC50 (5-lipoxygenase): > 30 µM
CCCCCCCCCCCCCCCC(=O)O [Palmitic Acid],–,Negative,Negative,> 300 µM,Negative,IC50 (Cyclooxygenase-2; [3]): > 300 µM; IC50 (5-lipoxygenase; [4]): > 30 µM
CCCCCCCC/C=C\CCCCCCCC(=O)O [Oleic Acid],–,Negative,Negative,> 300 µM,Negative,IC50 (Cyclooxygenase-2): > 300 µM; IC50 (5-lipoxygenase; [4]): > 30 µM
"CCCCC/C=C\C/C=C\CCCCCCCC(=O)OCC [Ethyl linoleate, ethyl linoleate]",–,Negative,Negative,> 300 µM,Negative,IC50 (Cyclooxygenase-2; [3]): > 300 µM; IC50 (5-lipoxygenase; [4]): > 30 µM
"CCCCCCCCCCCCCC(=O)OCC [Myristic Ester, ethyl myristate]",–,Negative,Negative,–,Negative,–
CCCCCCCCCCCCCCCC(=O)OCC [Ethyl Palmitate],–,Negative,Negative,> 300 µM,Negative,IC50 (Cyclooxygenase-2; [3]): > 300 µM; IC50 (5-lipoxygenase; [4]): > 30 µM
CC(C)NC[C@@H](O)COc1cccc2ccccc12 [R-propranolol],inactive,–,–,–,–,–
CC/C=C\C/C=C\C/C=C\CCCCCCCC(=O)OCC [Ethyl linolenate],–,Negative,Negative,> 300 µM,Negative,IC50 (Cyclooxygenase-2; [3]): > 300 µM; IC50 (5-lipoxygenase; [4]): > 30 µM
O=c1c(-c2ccc(O)cc2)coc2cc(O)cc(O)c12 [genistein],not modified,–,–,–,–,–
C[C@@H]1C[C@@H]([C@H](O)CC2CC(=O)NC(=O)C2)C(=O)[C@@H](C)C1 [Cycloheximide],antagonized,–,–,–,–,–
CCCCCCCCCCCCCC(=O)O [Myristic Acid],–,Negative,Negative,> 300 µM,Negative,IC50 (Cyclooxygenase-2; [3]): > 300 µM; IC50 (5-lipoxygenase): > 30 µM
"O=C1CCN(c2ccccc2)N1 [phenidone, reference compound]",–,–,–,–,–,"IC50 (5-lipoxygenase; reference compound, read-out: IC50, reference compounds, 5-lipoxygenase): 30 µM"
C/C(=C\CO)CCC[C@H](C)CCC[C@H](C)CCCC(C)C [Phytol],–,–,–,–,–,"% Inh, individual experiment ([1]; 1.00E-04 M): 87.0% and 64% and 97% and 8.0% and 31% and 29% and 33%; % Inh, individual experiment ([1]; 1.00E-05 M): 0.0% and 76% and 10% and 4.0% and 26% and 38% and 41%; % Inh, Mean ([1]; 1.00E-05 M, SE 10.1): 32.0%; % Inh, individual experiment ([1]; 1.00E-06 M): 82.0% and 88% and 81% and 31% and 25% and 3.0% and 7.0%; % Inh, Mean ([1]; 1.00E-06 M, SE 14.12): 31.0%; % Inh, individual experiment ([1]; 3.00E-05 M): 89.0% and 90% and 32% and 25% and 9.0% and 20% and 21%; % Inh, Mean ([1]; 3.00E-05 M, SE 12.8): 28.5%; % Inh, individual experiment ([1]; 3.00E-06 M): 65% and 0.0% and 9.0% and 73%; % Inh, Mean ([1]; 3.00E-06 M, SE 12.5): 9.0%; % Inh, individual experiment ([1]; 3.00E-07 M): 14.0% and 2.0% and 0.0%; % Inh, Mean ([1]; 3.00E-07 M, SE 4.3): 2.0%; IC50 ([1]; Table 4, marker compounds, read-out: Androgen Receptor IC50 (Table 4)): 10 µM; inhibition at 10 µM ([1]; at 10 μM): 50%; IC50 ([1]; read-out: androgen receptor assay IC50): 10 µM"
NCCCC(N)(C(=O)O)C(F)F (stereo not shown) [a-difluoromethyl-ornithine],not modified,–,–,–,–,–
CC(C)NC[C@H](O)COc1cccc2ccccc12 [L-propranolol],potentiated,–,–,–,–,–
C[C@]12CC[C@H]3[C@@H](CCC4=CC(=O)CC[C@@]43C)[C@@H]1CC[C@@H]2O [testosterone],–,–,–,–,–,"Testosterone, Vmax (Type 2 5α-reductase): 57.6 nmoles/10^6 cells/min; Km (Type 2 5α-reductase; [5]): 0.5 µM; Testosterone, Vmax (Type 1 5α-reductase): 4.2 nmoles/10^6 cells/min; Km (Type 1 5α-reductase; [5]): 2.9 µM"
CC[C@H](CC[C@@H](C)[C@H]1CC[C@H]2[C@@H]3CC=C4C[C@@H](O)CC[C@]4(C)[C@H]3CC[C@]12C)C(C)C [β-sitosterol],–,–,–,–,–,IC50 (Cyclooxygenase-2): > 300 µM; IC50 (5-lipoxygenase): > 30 µM; IC50 (Cyclooxygenase-1): > 300 µM
